From ChEMBL document CHEMBL1201862, “PubChem BioAssay data set” (2004) come the findings set out here.

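Where inhibition never reached the appropriate level, the endpoint shown equals the highest concentration tested. Otherwise, values were interpolated linearly from a five-concentration, 48-hour dose response in 96-well plates. Here, GI50 denotes the concentration required for 50% inhibition of growth.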 Calls of active or inactive are those of the source. Cut-off read from the data, not from the text of the source: active = GI50 up to about 1.1 µM and inactive = higher. Where only a bound is given, the exact number is not on record here.

Test systems include SK-OV-3; CAKI-1; MDA-MB-231; SW-620; SR; NCI-H522; CCRF-CEM; HOP-62; MCF7; MDA-N; Malme-3M; NCI-H23; HOP-92; EKVX; HL-60; OVCAR-8; A549; SF-295; ACHN.
Holding throughout (test): NCI-60 cell line screen, 48 h

Regarding `CC(C)Cn1cnc2c(SCc3ccccn3)nc(N)nc21`, the GI50 in the test with SK-OV-3, with CAKI-1, in the test with MDA-MB-231, with SW-620, in the test on SR and in the test on NCI-H522 was > 100 µM (inactive) in each case. Further, the GI50 in the test on CCRF-CEM, with HOP-62, in the test with MCF7, in the test with MDA-N, with Malme-3M and with NCI-H23 was > 100 µM (inactive) in each case. Also, the GI50 with HOP-92, in the test with EKVX, with HL-60, with OVCAR-8, in the test on A549 and in the test with SF-295 was > 100 µM (inactive) throughout. In the test on ACHN, the GI50 was > 100 µM (inactive).
On to `CC(=O)O[C@H]1CC[C@@]2(C)C(=CC[C@@H]3[C@@H]2CC[C@]2(C)c4nc(Cl)ccc4C[C@@H]32)C1`, for which the GI50 in the test on SK-OV-3 was > 100 µM (inactive); in the test on CAKI-1 it was 66.4 µM (inactive); in the test with MDA-MB-231 it was > 100 µM (inactive); in the test with SW-620, 59 µM (inactive); in the test on SR, 37 µM (inactive); with NCI-H522, 24.5 µM (inactive). Further, the GI50 is 20.6 µM (inactive) in the test with CCRF-CEM; 45.4 µM (inactive) with HOP-62; 0.944 µM (active) with MCF7; 29.3 µM (inactive) in the test with MDA-N; 61.1 µM (inactive) in the test with Malme-3M; 0.867 µM (active) in the test on NCI-H23. The GI50 was 54.7 µM (inactive) with HOP-92; 25.2 µM (inactive) in the test with EKVX; 33.8 µM (inactive) with HL-60; 37.2 µM (inactive) with OVCAR-8; 52 µM (inactive) in the test with A549; 24.7 µM (inactive) with SF-295. The GI50 with ACHN is 33.7 µM (inactive).
For `NN=C(CC(O)(C(F)(F)Cl)C(F)(F)Cl)CC(O)(C(F)(F)Cl)C(F)(F)Cl`, the GI50 in the test on SK-OV-3, in the test with CAKI-1, in the test on MDA-MB-231, in the test with SW-620, in the test with SR and with NCI-H522 was > 10 µM (inactive) throughout. Besides, the GI50 in the test with CCRF-CEM, with HOP-62, in the test on MCF7, with MDA-N, in the test on Malme-3M and with NCI-H23 was > 10 µM (inactive) in each case. Besides, the GI50 in the test with HOP-92, in the test with EKVX, in the test with HL-60, with OVCAR-8, in the test with A549 and in the test with SF-295 was > 10 µM (inactive) in each case. In addition, the GI50 with ACHN was > 10 µM (inactive).
As to `Cc1cccc2c1c(=O)c1c(O)cc(O)cc1n2C`, the GI50 is 66.1 µM (inactive) in the test on SK-OV-3; > 100 µM (inactive) in the test on CAKI-1; > 100 µM (inactive) with MDA-MB-231; > 100 µM (inactive) in the test with SW-620; > 100 µM (inactive) with SR; 97.7 µM (inactive) with NCI-H522. In addition, the GI50 with CCRF-CEM, in the test on HOP-62, in the test on MCF7, with MDA-N, in the test with Malme-3M and in the test with NCI-H23 was > 100 µM (inactive) throughout. Also, the GI50 was 92.9 µM (inactive) in the test with HOP-92; 85.1 µM (inactive) in the test on EKVX; > 100 µM (inactive) in the test on HL-60; > 100 µM (inactive) in the test with OVCAR-8; > 100 µM (inactive) in the test on A549; 89.1 µM (inactive) in the test with SF-295. Also, the GI50 in the test on ACHN is > 100 µM (inactive).
On to `O=C(O)c1cccc(S(=O)(=O)NN2C(=O)CSC2c2ccc(Cl)cc2Cl)c1` (stereo not given), for which the GI50 is > 100 µM (inactive) in the test with SK-OV-3; > 100 µM (inactive) with CAKI-1; 43.5 µM (inactive) with MDA-MB-231; 34.2 µM (inactive) in the test on SW-620; 17.6 µM (inactive) with SR; 24.7 µM (inactive) in the test on NCI-H522. The GI50 is 9.75 µM (inactive) in the test on CCRF-CEM; 44.9 µM (inactive) in the test on HOP-62; 32.1 µM (inactive) with MCF7; 24.7 µM (inactive) in the test with MDA-N; 82.4 µM (inactive) in the test with Malme-3M; 40.2 µM (inactive) with NCI-H23. Besides, the GI50 is > 100 µM (inactive) in the test on HOP-92; 68.5 µM (inactive) in the test with EKVX; 12 µM (inactive) in the test with HL-60; 15.4 µM (inactive) in the test on OVCAR-8; > 100 µM (inactive) in the test with A549; 51.6 µM (inactive) in the test with SF-295. For the same compound, in the test with ACHN, the GI50 was > 100 µM (inactive).
Regarding `O=[N+]([O-])c1cc(-[n+]2cc([O-])on2)ccc1Cl`, the GI50 in the test with SK-OV-3 was 33.5 µM (inactive); in the test on CAKI-1, 2.44 µM (inactive); in the test with MDA-MB-231, 17.4 µM (inactive); with SW-620 it was 13.4 µM (inactive); with SR, 29.9 µM (inactive); with NCI-H522, 17.8 µM (inactive). Moreover, the GI50 in the test with CCRF-CEM is 23.6 µM (inactive); with HOP-62 it was 15.3 µM (inactive); in the test with MCF7, 19.4 µM (inactive); with MDA-N it was 14.9 µM (inactive); in the test with Malme-3M it was 13.6 µM (inactive); in the test with NCI-H23 it was 13.7 µM (inactive). Also, the GI50 in the test with HOP-92 is 19.2 µM (inactive); with EKVX, 19 µM (inactive); in the test with HL-60, 35 µM (inactive); in the test on OVCAR-8 it was 20.6 µM (inactive); with A549, 31 µM (inactive); in the test with SF-295, 23.7 µM (inactive). The GI50 with ACHN is 16 µM (inactive).
For the compound `Cn1c(=S)sc2nc3ccccc3n2c1=S`, the GI50 in the test with SK-OV-3 was 10.4 µM (inactive); in the test with CAKI-1, 14.6 µM (inactive); in the test with MDA-MB-231 it was 19.3 µM (inactive); with SW-620, 12 µM (inactive); in the test on SR, 2.37 µM (inactive); in the test with NCI-H522 it was 4.21 µM (inactive). Also, the GI50 in the test on CCRF-CEM was 3.52 µM (inactive); in the test with HOP-62, 17 µM (inactive); in the test with MCF7, 2.26 µM (inactive); with MDA-N, 12.6 µM (inactive); in the test on Malme-3M it was 13.9 µM (inactive); in the test with NCI-H23, 12.4 µM (inactive). For the same compound, the GI50 was 8.93 µM (inactive) with HOP-92; 17.3 µM (inactive) in the test with EKVX; 2.49 µM (inactive) in the test on HL-60; 14.3 µM (inactive) in the test on OVCAR-8; 24.7 µM (inactive) in the test on A549; 18.8 µM (inactive) in the test on SF-295. Also, in the test with ACHN, the GI50 was 11.3 µM (inactive).
Turning to `O=P(O)(O)OC1O[C@H](CO)[C@H](O)[C@H](O)[C@H]1O` (stereo not given in full), the GI50 in the test on SK-OV-3, with CAKI-1, in the test on MDA-MB-231, in the test with SW-620, in the test with SR and in the test with NCI-H522 was > 100 µM (inactive) each time. Besides, the GI50 with CCRF-CEM, with HOP-62, with MCF7, with MDA-N, in the test on Malme-3M and with NCI-H23 was > 100 µM (inactive) each time. The GI50 in the test with HOP-92, in the test with EKVX, with HL-60, with OVCAR-8, with A549 and in the test with SF-295 was > 100 µM (inactive) each time. The GI50 with ACHN is > 100 µM (inactive).
Consider `Cn1c2c(c3ccccc31)CC1c3c(c4ccccc4n3C)CC21` (stereo not given), for which the GI50 in the test on SK-OV-3, in the test on CAKI-1, in the test on MDA-MB-231, with SW-620, with SR and in the test with NCI-H522 was > 100 µM (inactive) each time. Also, the GI50 in the test with CCRF-CEM, in the test with HOP-62, in the test on MCF7, in the test on MDA-N, with Malme-3M and with NCI-H23 was > 100 µM (inactive) in each case. For the same compound, the GI50 in the test on HOP-92, in the test on EKVX, in the test on HL-60, with OVCAR-8, in the test on A549 and with SF-295 was > 100 µM (inactive) throughout. Also, in the test with ACHN, the GI50 was > 100 µM (inactive).
As for `CCc1nnc(S)n1/N=C\c1ccc(-c2ccccc2[N+](=O)[O-])o1`, the GI50 was 36.1 µM (inactive) in the test on SK-OV-3; 51.4 µM (inactive) in the test with CAKI-1; 47.2 µM (inactive) in the test with MDA-MB-231; 41.7 µM (inactive) with SW-620; 16.9 µM (inactive) with SR; 31.6 µM (inactive) with NCI-H522. The GI50 with CCRF-CEM was 42.1 µM (inactive); in the test with HOP-62 it was 56.5 µM (inactive); with MCF7, 19.9 µM (inactive); in the test on MDA-N, 17.6 µM (inactive); with Malme-3M it was 85.5 µM (inactive); in the test with NCI-H23, 33.3 µM (inactive). For the same compound, the GI50 is 49.3 µM (inactive) in the test on HOP-92; 21.1 µM (inactive) with EKVX; 35.6 µM (inactive) in the test with HL-60; 33.1 µM (inactive) with OVCAR-8; 42.9 µM (inactive) in the test on A549; 28.7 µM (inactive) with SF-295. Further, the GI50 in the test on ACHN was 52.5 µM (inactive).
